Measured values published in patent publication US20130072424A1, “COMPOUNDS AND METHODS FOR PEPTIDE RIBONUCLEIC ACID CONDENSATE PARTICLES FOR RNA THERAPEUTICS” (MARINA BIOTECH, INC., priority 2005, published 2013).
Ends that are not written are not given here. Peptide text beside a SMILES is read from it. * marks the point of attachment. 5FAM = O=C1OC2(c3ccc(O)cc3Oc3cc(O)ccc32)c2ccc(C(=O)*)cc21

Assays:
[1] = system: primary mouse tail fibroblast (MTF) cells; experiment: Peptide cell-uptake assay (FITC-labeled peptide, flow cytometry); format: cell-based; settings: peptide 10 μM; for Peptide FITC MFI: relative values
Method: The efficacy of the full-length and truncated forms of polypeptide PN73 to enter cells was tested in vitro by a cell-uptake assay with primary mouse tail fibroblast (MTF) cells. The number of cells in culture that receive the FITC-labeled peptide was measured by flow cytometry. The percentage peptide cell-uptake was expressed relative to the total number of cells present in the culture. In addition, the Mean Fluorescence Intensity (MFI) was used to evaluate the quantity of FITC-labeled peptide found within cells. MFI directly correlates with the amount of FITC-labeled peptide within the cell: higher relative MFI value correlates with a greater amount of intracellular FITC-labeled peptides. Peptides were evaluated at 0.63 μM, 2.5 μM and 10 μM concentrations; PN768 was tested at 2 μM, 10 μM and 50 μM. […]

[2] = system: mouse tail fibroblast (MTF) cells; experiment: siRNA cell-uptake assay and MFI (Cy5-conjugated siRNA, flow cytometry), Examples 14-16; format: cell-based; settings: for % siRNA Cell-Uptake / siRNA Cy5 MFI: peptide 10 μM; for siRNA Cy5 MFI: relative values
Method: (§1) As described above, the cell-uptake assay determines the number of cells that receive Cy5-conjugated siRNA when complexed with a peptide. siRNA cell-uptake was assessed by flow cytometry (refer to Example 2 for details). Uptake was expressed as a percentage calculated by dividing the number of cells containing Cy5-conjugated siRNA by the total number of transfected and untransfected cells in culture. Mean Fluorescence Intensity (MFI) was measured by flow cytometry and determined the amount of Cy5-conjugated siRNA found within cells. The MFI value directly correlates with the amount of Cy5-conjugated siRNA within the cell, thus, a higher MFI value indicates a greater number of Cy5-conjugated siRNA within the cells.
The siRNA cell-uptake assay and MFI measurements were performed as described previously in Examples 2 and 3. […]

hTNF-α mRNA = experiment: Knockdown of hTNF-α gene expression by siRNA/peptide complexes in LPS-stimulated human monocytes (branch DNA mRNA); format: cell-based; settings: for KD: knockdown of hTNF-α mRNA vs Qneg, siRNAs A19S21, 21/21, LC20 at 20 nM, molar ratio 1 to 5; for siRNA knockdown activity of TNF-α mRNA, in words: siRNAs A19S21, 21/21 and LC20; for siRNA Knockdown Activity: 20 nM siRNA
Method: Specifically, the ability of siRNA/peptide complexes to modulate expression of the human tumor necrosis factor-α (hTNF-α) gene was assessed. The significance of targeting the hTNF-α gene is that it is implicated in mediating the occurrence or progression of rheumatoid arthritis (RA) when over-expressed in human and other mammalian subjects.
Human monocytes were used as a model system to determine the effect of siRNA/peptide complexes on hTNF-α gene expression. Qneg represents a random siRNA sequence and functioned as the negative control. […] A19S21, 21/21 and LC20 are siRNAs that target hTNF-α mRNA.
Healthy human blood was purchased from Golden West Biologicals (CA), the peripheral blood mononuclear cells (PBMC) were purified from the blood using Ficoll-Pague plus (Amersham) gradient. Human monocytes were then purified from the PBMCs fraction using magnetic microbeads from Miltenyi Biotech. Isolated human monocytes were resuspended in IMDM supplemented with 4 mM glutamine, 10% FBS, 1× non-essential amino acid and 1× pen-strep, and stored at 4 C until use.
In a 96 well flat bottom plate, human monocytes were seeded at 100 K/well/100 μl in OptiMEM medium (Invitrogen). Exemplary polynucleotide delivery-enhancing polypeptides were mixed with 20 nM siRNA at a molar ratio of 1 to 5 in OptiMEM medium at room temperature for 5 minutes. At the end of incubation, FBS was added to the mixture (final 3%), and 50 μl of the mixture was added to the cells. The cells were incubated at 37° C. for 3 hours. After incubation, the cells were transferred to V-bottom plate and pelleted at 1500 rpm for 5 min. The cells were resuspended in growth medium (IMDM with glutamine, non-essential amino acid, and pen-strep). After an overnight incubation, the monocytes were stimulated by application of LPS (Sigma) at 1 ng/ml for 3 hours to increase expression of TNF-α expression levels. After induction by LPS, cells were collected as above for mRNA quantification, and supernatant was saved for protein quantification if desired.
For mRNA measurement, branch DNA technology from Genospectra (CA) was used according to manufacturer's specification. To quantitate mRNA level in the cells, both house keeping gene (cypB) and target gene (TNF-α) mRNA were measured, and the reading for TNF-α was normalized with cypB to obtain relative luminescence unit. […]

in vitro = settings: mouse, mouse tail fibroblast (MTF) cells
Method: Fluorescence activated cell sorting (FACS) analysis were performed using Beckman Coulter FC500 cell analyzer (Fullerton, Calif.). The instrument was adjusted according to the fluorescence probes used (FAM or Cy5 for siRNA and FITC and PE for CD14). Propidium iodide (Fluka, St Louis) and AnnexinV (R&D systems, Minneapolis) were used as indicators for cell viability and cytotoxicity. A brief step-by-step protocol is detailed below. • (a) After exposure to the complex of siRNA/peptide, cells were incubated for at least 3 hours. • (b) Wash cells with 200 μl PBS. • (c) Detach cells with 15 μl TE, incubate at 370 C. • (d) Re-suspend cells in five wells with 30 μl FACS solution (PBS with 0.5% BSA, and 0.1% sodium Azide). • (e) Combine all five wells into a tube. • (f) Add PI (Propidium iodide) 5 μl into each tube. • (g) Analyze the cells with fluorescence activated cell sorting (FCAS) according to manufacturer's instructions.
For siRNA uptake analysis, cells were washed with PBS, treated with trypsin (attached cells only), and then analyzed by flow cytometry. […] In order to differentiate the cellular uptake from the membrane insertion of fluorescence labeled siRNA, trypan blue was used to quench the fluorescence on the cell membrane surface.
FITC-tagged peptides were diluted in Opti-MEM® media (Invitrogen) for about 5 minutes at room temperature and then added to cells. Cells were transfected for 3 hours at and washed with PBS, treated with trypsin, and then analyzed by flow cytometry. Cell viability was determined as above. Cellular uptake was distinguished from the membrane insertion using trypan blue to quench any fluorescence on the cell membrane surface.

[3] = system: mouse tail fibroblast (MTF) cells; experiment: Polypeptide mediated siRNA delivery screen (Cy5-siRNA cell-uptake and MFI), Example 17; format: cell-based; settings: for MFI measurement relative to the PN643 positive control, in words / MFI measurement relative to the positive control: Cy5-conjugated siRNA; for percent siRNA cell-uptake activity (Table 24): Cy5 conjugated LC20 siRNA, concentration not given
Method: as §1, with “siRNA uptake by” for “As described above, the cell-uptake assay determines the number of”, “cells” for “cells that receive Cy5-conjugated siRNA when complexed with a peptide. siRNA cell-uptake”

human monocytes = experiment: Cytotoxicity with human monocytes; format: cell-based
[4] = siRNA 21/21 MD8, siRNA:Peptide Ratio 1:5, human monocytes
[5] = siRNA 21/21 MD8, siRNA:Peptide Ratio 1:10, human monocytes
[6] = siRNA A19S21 MD8, siRNA:Peptide Ratio 1:5, human monocytes
[7] = siRNA A19S21 MD8, siRNA:Peptide Ratio 1:10, human monocytes
[8] = siRNA LC20, siRNA:Peptide Ratio 1:5, human monocytes
[9] = siRNA LC20, siRNA:Peptide Ratio 1:10, human monocytes

CC(C)C[C@H](NC(=O)[C@@H](NC(=O)[C@H](CCCCN)NC(=O)[C@H](Cc1ccc(O)cc1)NC(=O)[C@@H](NC(=O)[C@H](Cc1ccc(O)cc1)NC(=O)[C@@H](NC(=O)[C@H](CO)NC(=O)[C@H](Cc1ccc(O)cc1)NC(=O)[C@H](CO)NC(=O)[C@H](CCC(=O)O)NC(=O)[C@H](CCCCN)NC(=O)[C@@H](N)CCCNC(=N)N)C(C)C)C(C)C)C(C)C)C(=O)N[C@@H](CCCCN)C(=O)N[C@@H](CCC(N)=O)C(=O)NCC(=O)N[C@@H](CCCCNC(=O)c1ccc2c(c1)C(=O)OC21c2ccc(O)cc2Oc2cc(O)ccc21)C(=O)NCC(N)=O [PN708] (H-RKESYSVYVYKVLKQGK(5FAM)G-NH2)
% Peptide Cell-Uptake [1]: 97 (10 μM) %
Peptide FITC MFI [1]: 10 (10 μM)
amount of Cy5-siRNA delivered into cells compared to the full-length PN73 (PN690) peptide [2]: about doubled
maximum siRNA cell-uptake activity ([2]; Cy5-LC20 siRNA, PN708 at 80 μM): 95%
% siRNA Cell-Uptake [2]: 42 (10 μM) %
siRNA Cy5 MFI [2]: 34 (10 μM)
KD (hTNF-α mRNA; human monocytes): + (the peptide/siRNA complex had knockdown activity of 80% of the Qneg negative control siRNA (20% reduction in mRNA levels compared to the Qneg negative control))
siRNA knockdown activity of TNF-α mRNA, in words (hTNF-α mRNA; human monocytes): no observable knockdown activity
viability at 3 h (in vitro): > 90%

GTAMRILGGVIPRKKRRQRRRPPQ-amide (GTAMRILGGVIPRKKRRQRRRPPQ-NH2) [PN734, m-Calpain + TAT]
MFI measurement relative to the PN643 positive control, in words [3]: significantly lower

KETWWETWWTEWSQPKKKRKV-amide (KETWWETWWTEWSQPKKKRKV-NH2) [PN682, Pep-1]
MFI measurement relative to the PN643 positive control, in words [3]: comparable

KKKKKRFSFKKSFKLSGFSFKKNKK-amide (KKKKKRFSFKKSFKLSGFSFKKNKK-NH2) [PN681, MARCKS]
MFI measurement relative to the PN643 positive control, in words [3]: double
hTNF-α knockdown relative to Qneg complexed with the same polypeptide, in words (hTNF-α mRNA; all three siRNAs, ratios of 1:5 and 1:10, human monocytes): little to no knockdown activity
siRNA Knockdown Activity (hTNF-α mRNA; [4]): −
siRNA Knockdown Activity (hTNF-α mRNA; [5]): −
siRNA Knockdown Activity (hTNF-α mRNA; [6]): +/− (the peptide/siRNA complex had a knockdown activity of approximately 90% of the Qneg negative control siRNA (10% reduction in mRNA levels compared to the Qneg negative control))
siRNA Knockdown Activity (hTNF-α mRNA; [7]): +/− (the peptide/siRNA complex had a knockdown activity of approximately 90% of the Qneg negative control siRNA (10% reduction in mRNA levels compared to the Qneg negative control))
siRNA Knockdown Activity (hTNF-α mRNA; [8]): −
siRNA Knockdown Activity (hTNF-α mRNA; [9]): −

KRSRKESYSVYVYKVLKQ-GK[EPSILON-5CFG-amide (KRSRKESYSVYVYKVLKQG-{K(5CF)-Gly-NH2}) [PN654]
% Peptide Cell-Uptake [1]: 95 (10 μM) %
Peptide FITC MFI [1]: 10 (10 μM)
% siRNA Cell-Uptake [2]: 27 (10 μM) %
siRNA Cy5 MFI [2]: 14 (10 μM)
siRNA knockdown activity of TNF-α mRNA, in words (hTNF-α mRNA; human monocytes): moderate knockdown activity for both the A19S21 and 21/21 siRNAs but not for the LC20 siRNA

LGLLLRHLRHHSNLLANIPRKKRRQRRRPP-amide (LGLLLRHLRHHSNLLANIPRKKRRQRRRPP-NH2) [PN759]
MFI measurement relative to the positive control [3]: ~6 fold

RKESYSVYVYKVLKQ-NH2 [PN766]
cytotoxicity effects (human monocytes): No cytotoxicity effects were observed

RKKRRQRRRPPVAYISRGGVSTYYSDTVKGRFTRQKYNKRA-amide (RKKRRQRRRPPVAYISRGGVSTYYSDTVKGRFTRQKYNKRA-NH2) [PN760, TAT + Peptide P3a]
MFI measurement relative to the positive control [3]: approximately 13 fold

RQIKIWFQNRRMKWKK-amide (RQIKIWFQNRRMKWKK-NH2) [PN694, Penetratin]
MFI measurement relative to the PN643 positive control, in words [3]: significantly lower
percent siRNA cell-uptake activity (Table 24) [3]: 54%

RQIRIWFQNRRMRWRR-amide (RQIRIWFQNRRMRWRR-NH2) [PN714, PenArg]
MFI measurement relative to the PN643 positive control, in words [3]: significantly lower
percent siRNA cell-uptake activity (Table 24) [3]: 43%

RSVCRQIKICRRRGGCYYKCTNRPY-amide (RSVCRQIKICRRRGGCYYKCTNRPY-NH2; cysteine pairing not given here) [PN680, Androctonin]
MFI measurement relative to the PN643 positive control, in words [3]: comparable
hTNF-α mRNA knockdown relative to the Qneg/PN680 control complex, in words (hTNF-α mRNA; any of the hTNF-α specific siRNAs at a 1:5 ratio): significant knockdown activity
siRNA Knockdown Activity (hTNF-α mRNA; [4]): + (the peptide/siRNA complex had knockdown activity of 80% of the Qneg negative control siRNA (20% reduction in mRNA levels compared to the Qneg negative control))
siRNA Knockdown Activity (hTNF-α mRNA; [5]): +/− (the peptide/siRNA complex had a knockdown activity of approximately 90% of the Qneg negative control siRNA (10% reduction in mRNA levels compared to the Qneg negative control))
siRNA Knockdown Activity (hTNF-α mRNA; [6]): + (the peptide/siRNA complex had knockdown activity of 80% of the Qneg negative control siRNA (20% reduction in mRNA levels compared to the Qneg negative control))
siRNA Knockdown Activity (hTNF-α mRNA; [7]): +/− (the peptide/siRNA complex had a knockdown activity of approximately 90% of the Qneg negative control siRNA (10% reduction in mRNA levels compared to the Qneg negative control))
siRNA Knockdown Activity (hTNF-α mRNA; [8]): + (the peptide/siRNA complex had knockdown activity of 80% of the Qneg negative control siRNA (20% reduction in mRNA levels compared to the Qneg negative control))
siRNA Knockdown Activity (hTNF-α mRNA; [9]): + (the peptide/siRNA complex had knockdown activity of 80% of the Qneg negative control siRNA (20% reduction in mRNA levels compared to the Qneg negative control))

SYSVYVYKVLKQ-GK[EPSILON-5CFG-amide (SYSVYVYKVLKQG-{K(5CF)-Gly-NH2}) [PN653]
% Peptide Cell-Uptake [1]: 95 (10 μM) %
Peptide FITC MFI [1]: 8 (10 μM)
% siRNA Cell-Uptake [2]: 1.7 (10 μM) %
siRNA Cy5 MFI [2]: 4 (10 μM)
KD (hTNF-α mRNA; human monocytes): −
